# Tested on: 885724-159-R-J1-PDC complex spheroid viability
# Test: Anticancer human tumor 885724-159-R-J1-PDC patient-derived pancreatic adenocarcinoma cell line growth inhibition [GQUAD]
# Conditions: for IC50: curve of first compound; for viability, T/C: stronger effect = lower value
# Summary of the method: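 Multi-cell-type spheroids of tumor cells with HUVEC and mesenchymal stem cells, treated with drug combinations. Concentrations descend in half-log steps from near clinical Cmax, or from 10 microM where Cmax is unknown; viability read-out.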
# [1] = second compound 0.0316 µM, first compound 0.0316 µM
# [2] = second compound 0.0316 µM, first compound 0.1 µM
# [3] = second compound 0.0316 µM, first compound 0.316 µM
# [4] = second compound 0.0316 µM, first compound 1 µM
# [5] = second compound 0.0316 µM, first compound 3.16 µM
# [6] = second compound 0.0316 µM, first compound 10 µM
# [7] = second compound 0.1 µM, first compound 0.0316 µM
# [8] = second compound 0.1 µM, first compound 0.1 µM
# [9] = second compound 0.1 µM, first compound 0.316 µM
# [10] = second compound 0.1 µM, first compound 1 µM
# [11] = second compound 0.1 µM, first compound 3.16 µM
# [12] = second compound 0.1 µM, first compound 10 µM
# [13] = second compound 0.316 µM, first compound 0.0316 µM
# [14] = second compound 0.316 µM, first compound 0.1 µM
# [15] = second compound 0.316 µM, first compound 0.316 µM
# [16] = second compound 0.316 µM, first compound 1 µM
# [17] = second compound 0.316 µM, first compound 3.16 µM
# [18] = second compound 0.316 µM, first compound 10 µM
# [19] = second compound 1 µM, first compound 0.0316 µM
# [20] = second compound 1 µM, first compound 0.1 µM
# [21] = second compound 1 µM, first compound 0.316 µM
# [22] = second compound 1 µM, first compound 1 µM
# [23] = second compound 1 µM, first compound 3.16 µM
# [24] = second compound 1 µM, first compound 10 µM
# [25] = second compound 3.16 µM, first compound 0.0316 µM
# [26] = second compound 3.16 µM, first compound 0.1 µM
# [27] = second compound 3.16 µM, first compound 0.316 µM
# [28] = second compound 3.16 µM, first compound 1 µM
# [29] = second compound 3.16 µM, first compound 3.16 µM
# [30] = second compound 3.16 µM, first compound 10 µM
# [31] = second compound 10 µM, first compound 0.0316 µM
# [32] = second compound 10 µM, first compound 0.1 µM
# [33] = second compound 10 µM, first compound 0.316 µM
# [34] = second compound 10 µM, first compound 1 µM
# [35] = second compound 10 µM, first compound 3.16 µM
# [36] = second compound 10 µM, first compound 10 µM
# 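Note: spheroids exposed to agents for seven days before readout.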
# 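Throughout, for viability, T/C: percent of vehicle control viability where 100% = DMSO wells.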
compound,measurement,setting,value
O=C(NO)c1cnc(N2CCN(S(=O)(=O)c3ccc4ccccc4c3)CC2)nc1 + Cc1cnc(CNC(=O)c2c(=O)c3ccc(N4CCCN(C)CC4)nc3n3c2sc2ccccc23)cn1,IC50,second compound 0.0316 µM,549 nM
same,IC50,second compound 0.1 µM,450 nM
same,IC50,second compound 0.316 µM,437 nM
same,IC50,second compound 1 µM,434 nM
same,IC50,second compound 3.16 µM,182 nM
same,IC50,second compound 10 µM,183 nM
same,"viability, T/C",[1],77.4%
same,"viability, T/C",[2],83.3%
same,"viability, T/C",[3],65.4%
same,"viability, T/C",[4],31.2%
same,"viability, T/C",[5],13.7%
same,"viability, T/C",[6],0.25%
same,"viability, T/C",[7],117%
same,"viability, T/C",[8],79.7%
same,"viability, T/C",[9],56.6%
same,"viability, T/C",[10],40%
same,"viability, T/C",[11],10.4%
same,"viability, T/C",[12],0.28%
same,"viability, T/C",[13],102%
same,"viability, T/C",[14],78.9%
same,"viability, T/C",[15],63.3%
same,"viability, T/C",[16],26.1%
same,"viability, T/C",[17],12.7%
same,"viability, T/C",[18],0.32%
same,"viability, T/C",[19],80.5%
same,"viability, T/C",[20],70.4%
same,"viability, T/C",[21],60%
same,"viability, T/C",[22],28.4%
same,"viability, T/C",[23],9.39%
same,"viability, T/C",[24],0.18%
same,"viability, T/C",[25],80.6%
same,"viability, T/C",[26],59.6%
same,"viability, T/C",[27],39.8%
same,"viability, T/C",[28],23.7%
same,"viability, T/C",[29],0.23%
same,"viability, T/C",[30],0.18%
same,"viability, T/C",[31],60.2%
same,"viability, T/C",[32],58.5%
same,"viability, T/C",[33],42%
same,"viability, T/C",[34],20.5%
same,"viability, T/C",[35],0.26%
same,"viability, T/C",[36],0.22%
CC1COCCN1c1cc(C2(S(C)(=N)=O)CC2)nc(-c2ccnc3[nH]ccc23)n1 (stereo unspecified) + CN(C)c1ccc(Nc2c3ccc(NC(=O)CCN4CCCC4)cc3nc3cc(NC(=O)CCN4CCCC4)ccc23)cc1,IC50,second compound 0.0316 µM,> 10000 nM
same,IC50,second compound 0.1 µM,> 10000 nM
same,IC50,second compound 0.316 µM,> 10000 nM
same,IC50,second compound 1 µM,> 10000 nM
same,IC50,second compound 3.16 µM,> 10000 nM
same,IC50,second compound 10 µM,> 10000 nM
same,"viability, T/C",[1],102%
same,"viability, T/C",[2],106%
same,"viability, T/C",[3],98.1%
same,"viability, T/C",[4],98.6%
same,"viability, T/C",[5],69.1%
same,"viability, T/C",[6],79.6%
same,"viability, T/C",[7],87.7%
same,"viability, T/C",[8],93.7%
same,"viability, T/C",[9],82%
same,"viability, T/C",[10],87%
same,"viability, T/C",[11],79.3%
same,"viability, T/C",[12],75.3%
same,"viability, T/C",[13],84.5%
same,"viability, T/C",[14],89.6%
same,"viability, T/C",[15],92.3%
same,"viability, T/C",[16],75%
same,"viability, T/C",[17],80%
same,"viability, T/C",[18],63.9%
same,"viability, T/C",[19],89.4%
same,"viability, T/C",[20],74.3%
same,"viability, T/C",[21],76.3%
same,"viability, T/C",[22],73.2%
same,"viability, T/C",[23],76.8%
same,"viability, T/C",[24],53%
same,"viability, T/C",[25],76.3%
same,"viability, T/C",[26],65.1%
same,"viability, T/C",[27],65.3%
same,"viability, T/C",[28],64%
same,"viability, T/C",[29],73%
same,"viability, T/C",[30],51.6%
same,"viability, T/C",[31],71.9%
same,"viability, T/C",[32],81.8%
same,"viability, T/C",[33],85.4%
same,"viability, T/C",[34],67%
same,"viability, T/C",[35],71.9%
same,"viability, T/C",[36],63%
CC1COCCN1c1cc(C2(O)CC3CCC(C2)O3)c2cnn(-c3ccn[nH]3)c2n1 (stereo unspecified) + CN(C)c1ccc(Nc2c3ccc(NC(=O)CCN4CCCC4)cc3nc3cc(NC(=O)CCN4CCCC4)ccc23)cc1,IC50,second compound 0.0316 µM,1480 nM
same,IC50,second compound 0.1 µM,1400 nM
same,IC50,second compound 0.316 µM,495 nM
same,IC50,second compound 1 µM,880 nM
same,IC50,second compound 3.16 µM,286 nM
same,IC50,second compound 10 µM,449 nM
same,"viability, T/C",[1],89%
same,"viability, T/C",[2],74%
same,"viability, T/C",[3],69.3%
same,"viability, T/C",[4],53.1%
same,"viability, T/C",[5],41.6%
same,"viability, T/C",[6],33.9%
same,"viability, T/C",[7],95.4%
same,"viability, T/C",[8],83.8%
same,"viability, T/C",[9],61.5%
same,"viability, T/C",[10],55.8%
same,"viability, T/C",[11],42.8%
same,"viability, T/C",[12],36.8%
same,"viability, T/C",[13],80.9%
same,"viability, T/C",[14],83.5%
same,"viability, T/C",[15],55.4%
same,"viability, T/C",[16],46.4%
same,"viability, T/C",[17],44.9%
same,"viability, T/C",[18],33%
same,"viability, T/C",[19],74.9%
same,"viability, T/C",[20],62.5%
same,"viability, T/C",[21],65.1%
same,"viability, T/C",[22],45.6%
same,"viability, T/C",[23],39.9%
same,"viability, T/C",[24],32.6%
same,"viability, T/C",[25],80.9%
same,"viability, T/C",[26],65.4%
same,"viability, T/C",[27],47.6%
same,"viability, T/C",[28],38.4%
same,"viability, T/C",[29],33.4%
same,"viability, T/C",[30],29.5%
same,"viability, T/C",[31],70.2%
same,"viability, T/C",[32],66.7%
same,"viability, T/C",[33],49.6%
same,"viability, T/C",[34],42.4%
same,"viability, T/C",[35],35.6%
same,"viability, T/C",[36],23.3%

# Source: PubChem BioAssay AID2060502 (Molecular Pharmacology Branch, DTP, NCI, 2025)
